# Tests used:
# [1] = tested on: patients suffering from Parkinson's disease; settings: cited from earlier work
# [2] = tested on: rats receiving intraperitoneal injections of MPTP; assay: Intracerebroventricular melatonin implants in the MPTP rat model; assay type: in vivo
# Experimental: The rats were implanted with intracerebral melatonin pellets or inert nylon as described in Example 3 with the exception that they were not implanted with intrahypothalamic cannulae. After the control performance was assessed, all animals received intraperitoneal injections of MPTP on day 4 (7 mg/kg/i.p.). Given that the effects of MPTP are less prolonged and traumatic than 6-OHDA, this provided an opportunity to study the phenomenon of recovery. Body weight was measured daily and motor performance was measured 1 h and 2 days after injection.
# [3] = tested on: rats receiving intracerebral injections of 6-OHDA; assay: Intracerebroventricular melatonin implants in the 6-OHDA rat model; assay type: in vivo
# Experimental: (§1) After several days of control observations, animals were injected bilaterally with 2 μl of an 8 μg/μl solution of 6-OHDA. Body weight was measured each day just after the onset of the light cycle and motor performance was measured by assessing the performance of animals in the open field and on three tests routinely used to assess motor function. Open field activity was measured in a PVC box fitted with infrared sensors. The number of beams broken during a 10 minute test period was registered. The three reflex tests employed were latency to retract a limb elevated 25 cm above the surface of the test area, latency to step up or down from a raised platform when the rear torso was elevated 30 cm above the test area surface and latency to step outside a prescribed area.
# In order to produce a sustained central release of melatonin, Regulin® pellets were implanted into the left cerebral ventricle of rats at the time of cannulation of the posterior, lateral hypothalamus (PLH). Control rats were implanted with inert nylon pellets of the same dimensions. […] Animals were cannulated and tested as described in Example 1.
# [4] = tested on: 6-OHDA treated rats; assay: Melatonin antagonist therapy in the 6-OHDA rat model (12 hr light/12 hr dark); assay type: in vivo
# Experimental: as §1
# The compound ML-23 was tested in the 6-OHDA model described in Example 1 using a 12 hr light/12 hr dark cycle. Briefly, animals were subject to 13 days controlled observation, on day 14 they were injected with 6-OHDA. Animals in the treatment group were given melatonin antagonist (ML-23 in DMSO (3 mg per mL)) therapy (3 mg/kg/ml, interperitoneal injection (ip)) once on the day of 6-OHDA injection and then twice daily for the 3 subsequent days.
# A second melatonin antagonist, S-20928, was tested in the 6-OHDA model described in Examples 1 and 7.
# [5] = tested on: marmosets made Parkinsonian with the neurotoxin MPTP; assay: Oral ML-23 in marmosets made Parkinsonian with MPTP (blinded experiment); assay type: in vivo
# Experimental: The ML-23 formulation was prepared by dissolving ML-23 in 100% DSMO (dimethylsulfoxide 0.7 ml) and then making up to volume (2.3 ml) with soy bean oil for oral administration.
# [6] = tested on: patient with Parkinson's disease; assay: Bright light therapy plus oral atenolol in patients with Parkinson's disease; assay type: in vivo, human
# Experimental: One patient, diagnosed 3 years earlier with Parkinson's disease, was exposed to bright light therapy (1500 lux) for two, 1 hour sessions per day, one before retiring and one immediately upon arising to antagonize melatonin secretion. This patient was also prescribed 50 mg of the β-noradrenergic antagonist, Atenolol, before going to bed. The patient's performance on motor tests and their body weight were measured before treatment commenced and 2 weeks later. A second patient, diagnosed with Parkinson's disease at least 10 years previously, was tested on the same tests as the first patient.
# [7] = ML-23 3 mg/kg ip, once on day of 6-OHDA then twice daily for 3 days
structure (smiles),measurement,setting,value
COc1ccc2[nH]cc(CCNC(C)=O)c2c1 [melatonin],amelioration of the clinical features of Parkinson's disease,"[1]; daily doses of 1000-1200 mg of melatonin per day, ref (18)",20-36%
same,tremor,"[1]; daily doses of 1000-1200 mg of melatonin per day, ref (19)",significant reduction in tremor
same,"cardinal features of Parkinson's disease, replication study","[1]; similar doses over the same time period, ref (20)",did not improve the cardinal features
same,body weight gain,"[2]; melatonin implants vs nylon, MPTP 7 mg/kg i.p. on day 4, p=0.0201, FIG. 22A/B",did not gain as much weight
same,"ability to step, assessed during the night","[2]; melatonin implants vs nylon, p=0.0238, FIG. 24",significant decrement in the ability to step
same,motor impairment after MPTP (open field locomotion),"[2]; melatonin pellets vs nylon, overall performance p=0.0344, night trend p=0.0638, FIG. 23A/B",increased the motor impairment
same,reduction in open field performance relative to animals implanted with inert nylon,[3]; melatonin implants after 6-OHDA,more than twice as much
same,loss of body weight after 6-OHDA,"[3]; melatonin implants vs nylon implants, day 16 to end of experiment, p=0.0143, FIG. 14",more severe loss of body weight
same,overall change in open field performance and that during the test session,"[3]; melatonin implants vs nylon implants, p=0.0022, FIGS. 15A and B",significantly worse
same,"performance on the 3 motor tests (limb retraction, step, ambulate)","[3]; melatonin implants vs nylon, FIGS. 16-18",slower than the animals implanted with nylon although not significant
COc1ccc2c(c1)C(CCNc1cccc([N+](=O)[O-])c1[N+](=O)[O-])CN2 (stereo not shown) [ML-23],"horizontal and vertical movement, particularly at night",[4]; ML-23 3 mg/kg ip,significantly improved
same,overall performance versus vehicle following 6-ODHA injection,[4]; ML-23 3 mg/kg ip,performed better than those treated with vehicle
same,body weight loss,[4]; [7],prevented the severe body weight loss
same,development of severe motor impairment,[4]; [7],prevented the development of severe motor impairment
same,survival / recovery,"[4]; ML-23 3 mg/kg ip, 3 out of 7 animals in the 6-ODHA/vehicle group died within 6 days",all rats treated with ML-23 recovered
same,"latency to perform the 3 motor tests (retract a limb, step, ambulate)","[4]; ML-23 3 mg/kg ip, test and recovery periods",improved
same,number of changes in head movement,"[5]; ML-23 oral 5 mg/kg twice daily for 52 days, vehicle 9.5, p=0.006",19.8
same,horizontal movement at night,"[5]; ML-23 oral 5 mg/kg twice daily for 52 days, vehicle 35 counts, p=0.01",80 counts per 30 minutes
same,vertical movement,"[5]; ML-23 oral 5 mg/kg twice daily for 52 days, vehicle 308, p-0.01",594 per 30 minutes
same,intake of dry food,"[5]; ML-23 oral, vehicle 1 gram per day, p=0.0001",3 grams per day
same,"psychotic features score (agitation, frantic non-regulatory biting, vocalization, obstinate progression)","[5]; positive symptoms 48 hours after MPTP treatment, oral ML-23, vehicle score=10, p=0.0005",2.5
same,overall clinical rating of Parkinsonian behavior,"[5]; scale 0= normal to 20= severely Parkinsonian, ML-23 oral 5 mg/kg twice daily, vehicle 8.4, p-0.006",1.4
CC(C)NCC(O)COc1ccc(CC(N)=O)cc1 (stereo not shown) [Atenolol],time taken to walk a 3 meter path and return,"[6]; first patient, after 2 weeks of bright light (1500 lux, two 1 hour sessions per day) plus Atenolol 50 mg, 31.3 seconds before treatment",13.5 s
same,gain in body weight,"[6]; first patient, after 2 weeks of treatment",3 kilos
same,tremor and rigidity,"[6]; first patient, after treatment",improved
same,memory loss and mental state,"[6]; first patient, after treatment, permitted a decrease of daily 1-dopa dose",improved
same,time taken to lift foot to knee and return it to the floor 10 times,"[6]; first patient, either leg, two weeks after treatment, 58 s (R) 65 s (L) before treatment",44 s
same,latency to touch knee with foot and return to the floor 10 times,"[6]; second patient, bright light (1000 lux) 1 hour morning and night plus Atenolal 50 mg, after 5 weeks of treatment, FIG. 26",improved dramatically
O=C(NCCc1cccc2ccccc12)C1CCC1 [S-20928],body weight (most resilient consequence of DA degeneration),[4]; S-20928 1 mg/kg ip,capable of repairing
same,morbidity of the disease,[4]; S-20928 1 mg/kg ip,decreases the morbidity of the disease
same,survival time,[4]; S-20928 1 mg/kg ip,increases survival time

# From patent publication US20020068692A1, “Method for the treatment of neurological or neuropsychiatric disorders” (priority 1996, published 2002)
